Test results from patent US5780245A, “Polypeptides having a serotonin receptor activity, nucleic acids coding for these polypeptides and uses” (priority 1992, dated 1998).
Where two headings read alike, the source gives them in different places.

B1: truncated protein: receptor having only the first three transmembrane domains, residues 1 to 177 SEQ ID No. 2 plus 14 C-terminal amino acids (protein)
chain: MASSYKMSEQSTTSEHILQKTCDHLILTNRSGLETDSVAEEMKQTVEGQGHTVHWAALLILAVIIPTIGGNILVILAVALEKRLQYATNYFLMSLAIADLLVGLFVMPIALLTIMFEAIWPLPLALCPAWLFLDVLFSTASIMHLCAISLDRYIAIKKPIQANQCNTRATAFIKITV
modifications: plus 14 C-terminal amino acids

How the values were obtained:
whole (N) 5HT2C receptor = whole (N) 5HT2C receptor (Mus musculus, UniProt Q02152); experiment: biochemical; format: binding; details: for order of efficacy of displacement / competition: displacement of [^125 I]DOI
whole (N) 5HT2C receptor, sequence (Q02152 whole entry S167T/A227V/S449C, the tested form may be a part): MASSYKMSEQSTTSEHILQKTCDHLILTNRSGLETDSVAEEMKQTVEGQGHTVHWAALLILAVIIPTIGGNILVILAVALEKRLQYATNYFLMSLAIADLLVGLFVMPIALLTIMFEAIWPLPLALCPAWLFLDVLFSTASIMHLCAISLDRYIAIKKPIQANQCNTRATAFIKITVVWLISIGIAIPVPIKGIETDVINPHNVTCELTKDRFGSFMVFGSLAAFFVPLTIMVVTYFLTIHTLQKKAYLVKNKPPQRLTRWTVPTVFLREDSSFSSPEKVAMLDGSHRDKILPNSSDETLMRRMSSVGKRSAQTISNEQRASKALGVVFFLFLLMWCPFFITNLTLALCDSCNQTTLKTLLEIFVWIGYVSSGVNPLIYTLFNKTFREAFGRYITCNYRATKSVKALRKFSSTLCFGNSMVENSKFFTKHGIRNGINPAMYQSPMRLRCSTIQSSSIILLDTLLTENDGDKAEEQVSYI

[1] = biological target: T1, truncated (T) 5HT2C receptor (Mus musculus, UniProt Q02152, S167T); experiment: biochemical; format: binding
T1 sequence (Q02152 with tags, fused parts or gaps S167T): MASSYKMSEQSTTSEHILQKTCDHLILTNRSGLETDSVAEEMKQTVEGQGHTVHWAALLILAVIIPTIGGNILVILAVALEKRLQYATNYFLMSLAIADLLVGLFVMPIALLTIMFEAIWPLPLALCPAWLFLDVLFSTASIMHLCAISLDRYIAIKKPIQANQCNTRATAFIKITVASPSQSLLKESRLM

5-HT1C = biological target: T2, 5-HT1C (Homo sapiens, UniProt P28335); experiment: biochemical; format: binding
T2 sequence (P28335 33-458): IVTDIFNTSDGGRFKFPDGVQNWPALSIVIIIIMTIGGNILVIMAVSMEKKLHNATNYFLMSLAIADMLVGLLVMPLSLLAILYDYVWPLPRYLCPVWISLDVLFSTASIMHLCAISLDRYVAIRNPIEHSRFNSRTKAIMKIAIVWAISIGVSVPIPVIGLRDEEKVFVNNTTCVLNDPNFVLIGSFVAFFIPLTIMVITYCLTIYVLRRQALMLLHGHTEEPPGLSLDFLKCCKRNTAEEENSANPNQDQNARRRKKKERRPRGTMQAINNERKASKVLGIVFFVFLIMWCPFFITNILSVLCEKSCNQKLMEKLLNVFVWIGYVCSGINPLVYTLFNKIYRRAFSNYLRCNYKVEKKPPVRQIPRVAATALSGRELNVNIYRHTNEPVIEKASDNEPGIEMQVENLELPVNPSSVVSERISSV

5-HT2 = 5-HT2 (Homo sapiens, UniProt P28223); experiment: binding to 5-HT2 (Table 1 comparison)
5-HT2, sequence (P28223 whole entry, species assumed): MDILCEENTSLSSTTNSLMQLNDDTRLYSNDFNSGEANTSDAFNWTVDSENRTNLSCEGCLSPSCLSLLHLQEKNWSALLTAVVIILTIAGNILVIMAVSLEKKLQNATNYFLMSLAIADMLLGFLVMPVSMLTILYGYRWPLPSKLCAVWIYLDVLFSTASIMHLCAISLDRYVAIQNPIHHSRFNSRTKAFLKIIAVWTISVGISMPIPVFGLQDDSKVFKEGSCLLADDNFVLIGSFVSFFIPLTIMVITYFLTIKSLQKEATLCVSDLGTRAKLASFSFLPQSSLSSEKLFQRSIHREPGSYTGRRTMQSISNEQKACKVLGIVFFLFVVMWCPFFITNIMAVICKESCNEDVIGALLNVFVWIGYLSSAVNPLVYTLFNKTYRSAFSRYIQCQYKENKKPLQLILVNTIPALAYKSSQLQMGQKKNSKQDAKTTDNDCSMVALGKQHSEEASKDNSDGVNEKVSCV

coronary arteries = details: human coronary atherosclerosis; Golino et al.; cited from earlier work
5HT2C receptor = biological target: T3, 5HT2C receptor (Mus musculus, UniProt Q02152); experiment: saturation binding of [^125 I]DOI to membranes of Cos-7 cells expressing the 5HT2C receptor
T3 construct: expressed in transfected cells; host or cells: Cos-7
T3 sequence (Q02152 whole entry S167T/A227V/S449C): as the sequence (Q02152 whole entry S167T/A227V/S449C, the tested form may be a part) above
Method: FIG. 1 Scatchard curve of the results of experiments for the binding, at saturation, of [^125 I]DOI to the membranes of Cos-7 cells expressing the 5HT2C receptor.
The cDNA fragment isolated in Example 1 was inserted into an eukaryotic expression vector, which was used to transfect Cos-7 cells. The membranes of the transfected cells obtained were then prepared and tested for their capacity to bind certain labelled serotoninergic ligands.
The cDNA encoding the 5HT2C receptor was isolated in the form of a 1372 pb XbaI-EcoRI fragment and then inserted at the corresponding sites of the vector p513. The vector p513 is derived from the vector pSG5 [Green et al., Nucl. Acids Res. 16 (1988) 369] by addition of a multiple cloning site. The recombinant vector thus obtained, designated p513NP75, was then used (10 μg per 10 cm dish) to transfect the Cos-7 cells in the presence of calcium phosphate.
48 Hours after transfection, the recombinant cells are harvested and the membranes are prepared according to the technique described by Amlaiky and Caron [J. Biol. Chem. 260 (1985) 1983].
Saturation binding and competition experiments were then carried out on these membranes in the presence of [^125 I]DOI (2200 Ci/mmol; New England Nuclear) and various test compounds.
(§1) The [^125 I]DOI (dimethoxyphenyl isopropylamine) was first used alone, in order to detect the expression of the gene encoding the receptors of the invention in the membranes of the recombinant cells. For this purpose, 100 μl of membrane suspension ([…]) of proteins) were incubated for 30 minutes at 30° C. in the presence of the radioactive ligand (50 μl) and 50 μl of 50 mM Tris-HCl buffer (pH 7.4), 150 mM NaCl, 10 mm MgCl2, final volume: 200 μl. The reaction is then stopped by addition of an isoosmotic ice-cold solution, then by filtration on Whatman GF/B filters, followed by 4 rinses in 5 ml of the above ice-cold buffer. The filters are then dried and the radioactivity is measured by counting (γ counter). Non-specific binding, determined in the presence of 10 μM of cold DOI, represented about 30% of the total binding.

[2] = system: membranes of the control cells (transfected with plasmid pSG5); experiment: [^125 I]DOI binding to membranes of control cells (transfected with plasmid pSG5)
Method: as §1
These cells therefore indeed express a functional serotonin receptor.

[3] = system: translation of the intracellular signal; experiment: translation of the intracellular signal by the truncated receptor; format: cell-based, mouse; details: truncated protein
Text: The physiological role of this form of the receptor remains unknown, but it seems likely that it serves to protect certain sensitive targets, such as the vascular endothelium, from harmful stimulations by locally "diluting" the effect of the ligand, in this case serotonin.

[4] = [^125 I]DOI displacement, COS membranes, truncated receptor, at least three experiments in triplicate, read-out: pKD, binding to the COS T (converted)
[5] = [^125 I]DOI displacement, Cos-7 membranes, whole receptor, at least three experiments in triplicate, read-out: pKD, binding to the COS N cells (converted)
[6] = Table 1 comparison column, source of values not stated

| Molecule | Kd (whole (N) 5HT2C receptor) | Kd [1, 4] | Kd (whole (N) 5HT2C receptor; [5]) | Kd (5-HT2) | order of efficacy of displacement (whole (N) 5HT2C receptor; whole receptor) | Kd (5-HT1C) | further results |
| --- | --- | --- | --- | --- | --- | --- | --- |
| COc1ccc2[nH]cc(CCN(C)C)c2c1 [NNdiMe-5-MeOT] | 7.41 µM | 45.7 µM |  |  |  |  |  |
| NCCc1c[nH]cn1 [Histamine] |  | > 100 µM | > 100 µM | > 100 µM |  |  | Kd (5-HT1C; [6]): > 100 µM |
| O=C(c1ccc(F)cc1)C1CCN(CCn2c(=O)[nH]c3ccccc3c2=O)CC1 [Ketanserin] |  |  | 0.204 µM |  | ritanserin>N-acetyl 5-HT>methysergide>setoperone=cyproheptadine>spiperone>ketanserin>tryptamine>5-HT >8-OH-DPAT |  | Kd [1]: > 100 µM; increased sensitivity to serotonin of the contraction of the coronary arteries (coronary arteries): can be reduced by ketanserin |
| NCCc1c[nH]c2ccccc12 [Tryptamine] | 0.2 µM | 14.5 µM |  |  | ritanserin>N-acetyl 5-HT>methysergide>setoperone=cyproheptadine>spiperone>ketanserin>tryptamine>5-HT >8-OH-DPAT | 0.0631 µM |  |
| Cn1cc(CCN)c2cc(O)ccc21 [1-ME-5-HT] | 2.51 µM | 60.3 µM |  |  |  | 0.00398 µM | Kd (5-HT2; [6]): 0.501 µM |
| CC[C@@H](CO)NC(=O)[C@@H]1C=C2c3cccc4c3c(cn4C)C[C@H]2N(C)C1 [Methysergide] | 0.0126 µM |  |  |  | ritanserin>N-acetyl 5-HT>methysergide>setoperone=cyproheptadine>spiperone>ketanserin>tryptamine>5-HT >8-OH-DPAT | 0.00251 µM |  |
| Cc1nc2sccn2c(=O)c1CCN1CCC(=C(c2ccc(F)cc2)c2ccc(F)cc2)CC1 [Ritanserin] |  |  |  |  | ritanserin>N-acetyl 5-HT>methysergide>setoperone=cyproheptadine>spiperone>ketanserin>tryptamine>5-HT >8-OH-DPAT | 0.00251 µM |  |
| CN1[C@@H]2CC[C@H]1C[C@@H](OC(=O)c1cc(Cl)cc(Cl)c1)C2 [MDL 72222] |  | > 100 µM | 24 µM | 0.2 µM |  |  | competition (whole (N) 5HT2C receptor; whole receptor): absence of competition; Kd (5-HT1C; [6]): > 10 µM |
| CN(C)CCCN1c2ccccc2Sc2ccc(Cl)cc21 [Chlorpromazine] |  | > 100 µM | > 100 µM |  |  |  |  |
| O=C(CCCN1CCC2(CC1)C(=O)NCN2c1ccccc1)c1ccc(F)cc1 [Spiperone] |  | > 100 µM | 0.0501 µM |  | ritanserin>N-acetyl 5-HT>methysergide>setoperone=cyproheptadine>spiperone>ketanserin>tryptamine>5-HT >8-OH-DPAT |  | Kd (5-HT1C; [6]): 1.26 µM |
| c1ccc2nc(N3CCNCC3)ccc2c1 [Quipazine] |  | 14.1 µM | 6.61 µM | 0.631 µM |  | 0.2 µM | competition (whole (N) 5HT2C receptor; whole receptor): absence of competition |
| CN1CCC(=C2c3ccccc3C=Cc3ccccc32)CC1 [Cyproheptadine] |  |  |  |  |  |  | Kd (5-HT1C; [6]): 0.0126 µM |
| CCCN(CCC)C1CCc2cccc(O)c2C1 (stereo not shown) [8-OH-DPAT] | 6.46 µM | > 100 µM |  | 10 µM | ritanserin>N-acetyl 5-HT>methysergide>setoperone=cyproheptadine>spiperone>ketanserin>tryptamine>5-HT >8-OH-DPAT |  |  |
| Cc1nc2n(c(=O)c1CCN1CCC(C(=O)c3ccc(F)cc3)CC1)CCS2 [Setoperone] |  | > 100 µM | 0.0245 µM | 0.00251 µM | ritanserin>N-acetyl 5-HT>methysergide>setoperone=cyproheptadine>spiperone>ketanserin>tryptamine>5-HT >8-OH-DPAT |  | Kd (5-HT1C; [6]): 0.0501 µM |
| COc1cc(CC(C)N)c(OC)cc1I (stereo not shown) [DOI, dimethoxyphenyl isopropylamine] |  |  |  |  |  |  | specific binding to the membranes of the transfected cells (5HT2C receptor; [^125 I]DOI): binds specifically to the membranes of the transfected cells; Kd (5HT2C receptor; [^125 I]DOI saturation binding, 30 minutes at 30° C., pH 7.4, read-out: apparent KD): 0.0258 ± 0.00054 µM; affinity for the transfected cells (5HT2C receptor; [^125 I]DOI saturation binding, FIG. 1): high and the binding is saturable; non-specific binding (of the total binding) (5HT2C receptor; in the presence of 10 μM of cold DOI): about 30%; binding to membranes of the control cells [2]: not to the membranes of the control cells |
| CC(=O)NCCc1c[nH]c2ccc(O)cc12 [N-Acetyl-5-HT] | 0.00708 µM | 0.2 µM |  | 3.16 µM | ritanserin>N-acetyl 5-HT>methysergide>setoperone=cyproheptadine>spiperone>ketanserin>tryptamine>5-HT >8-OH-DPAT | 0.794 µM |  |
| CN1C2CCC1CC(OC(=O)c1c[nH]c3ccccc13)C2 (stereo not shown) [ICS 205-930] |  | > 100 µM |  |  |  | 25.1 µM | competition (whole (N) 5HT2C receptor; whole receptor): absence of competition |
| Cc1[nH]c2ccc(O)cc2c1CCN [2-Me-5-HT] | 6.61 µM | > 100 µM |  |  |  | 1.58 µM | Kd (5-HT2; [6]): 6.31 µM |
| B1 |  |  |  |  |  |  | translation of the intracellular signal [3]: completely abolished |
